Structures can show the parent of a compound that is named as a salt.
molecular target: CK2A1 (CK2α/β) (Homo sapiens, UniProt P68400); experiment: CK2 kinase assay, CK2A1 (CK2α/β); assay type: biochemical; settings: Table A; read-out: CK2A1 (CK2α/β) (IC50)
Sequence (P68400 whole entry, species assumed): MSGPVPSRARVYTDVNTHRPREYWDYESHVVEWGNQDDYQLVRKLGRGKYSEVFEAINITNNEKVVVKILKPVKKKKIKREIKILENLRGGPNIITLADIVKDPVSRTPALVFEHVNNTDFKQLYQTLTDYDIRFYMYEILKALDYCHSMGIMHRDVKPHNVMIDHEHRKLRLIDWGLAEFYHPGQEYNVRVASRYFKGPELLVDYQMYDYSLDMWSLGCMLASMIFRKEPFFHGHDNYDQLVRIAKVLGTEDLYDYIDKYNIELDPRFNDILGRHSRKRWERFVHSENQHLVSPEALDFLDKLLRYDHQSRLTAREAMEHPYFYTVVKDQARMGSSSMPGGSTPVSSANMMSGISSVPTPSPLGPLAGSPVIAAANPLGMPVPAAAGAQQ
Sequence (P67870 whole entry partner, species assumed): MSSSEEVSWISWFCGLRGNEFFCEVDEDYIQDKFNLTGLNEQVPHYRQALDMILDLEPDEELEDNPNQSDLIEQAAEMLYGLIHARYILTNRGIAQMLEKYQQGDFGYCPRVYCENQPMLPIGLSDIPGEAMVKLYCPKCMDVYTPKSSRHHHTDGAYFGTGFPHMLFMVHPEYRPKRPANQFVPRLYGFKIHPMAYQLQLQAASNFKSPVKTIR

IC50 | SMILES
1.89 nM | COC(=O)N[C@@H]1CN(c2cc(C#N)cc(Nc3nc(NC4CC4)c4ncc(C#N)n4n3)c2Cl)C[C@@H]1C [Example 293, methyl ((3S,4S)-1-(2-chloro-5-cyano-3-((7-cyano-4-(cyclopropylamino)imidazo[2,1-f][1,2,4]triazin-2-yl)amino)phenyl)-4-methyl-3-pyrrolidinyl)carbamate]
0.83 nM | COC(=O)Nc1cc(Nc2nc(NC3CC3)c3ncc(C#N)n3n2)c(Cl)c(N2CC[C@@H](NC(=O)OC)[C@@H](F)C2)c1 (racemic) [Example 202, (+/−) methyl (4-chloro-3-((7-cyano-4-(cyclopropylamino)imidazo[2,1-f][1,2,4]triazin-2-yl)amino)-5-((3S,4R)-3-fluoro-4-((methoxycarbonyl)amino)-1-piperidinyl)phenyl)carbamate]
0.62 nM | N#Cc1cc(Nc2nc(NC3CC3)c3ncc(C#N)n3n2)c(Cl)c(N2CCN(CC3CNCCO3)CC2)c1 (stereo not shown) [Example 597, 2-({2-chloro-5-cyano-3-[4-(morpholin-2-ylmethyl)piperazin-1-yl]phenyl}amino)-4-(cyclopropylamino)imidazo [2,1-f][1,2,4]triazine-7-carbonitrile]
1.31 nM | N#Cc1cc(Nc2nc(NC3CC3)c3ncc(C#N)n3n2)c(Cl)c(N2CC[C@@H](N)C2)c1 [Example 46, (R)-2-(3-(3-aminopyrrrolidin-1-yl)-2-chloro-5-cyanophenylamino)-4-(cyclopropylamino)imidazo [1,2-f][1,2,4]triazine-7-carbonitrile]
1.27 nM | N#Cc1cc(Nc2nc(NC3CC3)c3ncc(C#N)n3n2)c(Cl)c(N2CCC3CCN(CC(O)CF)C3C2)c1 (racemic) [Example 459, (+/−)-2-((2-chloro-5-cyano-3-(1-(3-fluoro-2-hydroxypropyl)hexahydro-1H-pyrrolo[2,3-c]pyridin-6(2H)-yl)phenyl)amino)-4-(cyclopropylamino)imidazo[2,1-f][1,2,4]triazine-7-carbonitrile]
0.82 nM | CCNc1nc(Nc2cc(C#N)cc(N3CC[C@H](NC(=O)OC)[C@@H](OP(=O)(O)O)C3)c2Cl)nn2c(C#N)cnc12 [Example 338, methyl ((3S,4S)-1-(2-chloro-5-cyano-3-((7-cyano-4-(ethylamino)imidazo[2,1-f][1,2,4]triazin-2-yl)amino)phenyl)-3-(phosphonooxy)-4-piperidinyl)carbamate]
1.34 nM | N#Cc1cc(Nc2nc(NC3CC3)c3ncc(C#N)n3n2)c(Cl)c(C(O)CN2CCOCC2)c1 (stereo not shown) [Example 684, 2-((2-chloro-5-cyano-3-(1-hydroxy-2-morpholinoethyl)phenyl)amino)-4-(cyclopropylamino)imidazo[2,1-f][1,2,4]triazine-7-carbonitrile]
1.1 nM | CCNc1nc(Nc2cc(C#N)cc(N3CCN(C4(CCO)COC4)CC3)c2Cl)nn2c(C#N)cnc12 [Example 543, 2-((2-chloro-5-cyano-3-(4-(3-(2-hydroxyethyl)oxetan-3-yl)piperazin-1-yl)phenyl)amino)-4-(ethylamino)imidazo[2,1-f][1,2,4]triazine-7-carbonitrile]
0.49 nM | CC(C)(O)CC(=O)N1CCN(c2cc(C#N)cc(Nc3nc(NC4CC4)c4ncc(C#N)n4n3)c2Cl)CC1 [Example 91]
0.8 nM | CCNc1nc(Nc2ccc3c(c2)c(C#N)cn3C2CCN(CC(O)CF)CC2)nn2c(C#N)cnc12 (racemic) [Example 824, (+/−)-2-((3-cyano-1-(1-(3-fluoro-2-hydroxypropyl)piperidin-4-yl)-1H-indol-5-yl)amino)-4-(ethylamino)imidazo[2,1-f][1,2,4]triazine-7-carbonitrile]
0.68 nM | N#Cc1cc(Nc2nc(NC3CC3)c3ncc(C#N)n3n2)c(F)cc1OCCN1CCOCC1 [Example 416, 2-((5-cyano-2-fluoro-4-(2-morpholinoethoxy)phenyl)amino)-4-(cyclopropylamino)imidazo[2,1-f][1,2,4]triazine-7-carbonitrile]
0.44 nM | CCNc1nc(Nc2cc(C#N)cc(N3CC[C@@H](NC(=O)OC)[C@H](OC(=O)[C@@H](N)CCCNC(=N)N)C3)c2Cl)nn2c(C#N)cnc12 [Example 808, (S)-(3R,4R)-1-(2-chloro-5-cyano-3-((7-cyano-4-(ethylamino)imidazo[2,1-f][1,2,4]triazin-2-yl)amino)phenyl)-4-((methoxycarbonyl)amino)piperidin-3-yl 2-amino-5-guanidinopentanoate trihydrochloride]
1.52 nM | N#Cc1cc(Nc2nc(NC3CC3)c3ncc(C#N)n3n2)c(Cl)c(N2CCN(NCC(N)=O)CC2)c1 [Example 791, 2-((4-(2-chloro-5-cyano-3-((7-cyano-4-(cyclopropylamino)imidazo[2,1-f][1,2,4]triazin-2-yl)amino)phenyl)piperazin-1-yl)amino)acetamide]
5.8 nM | N#Cc1cc(Nc2nc(NC3CC3)c3ncc(C#N)n3n2)c(Cl)c(N2CCN(C3CN(C(=O)C4CCC(O)CC4)C3)CC2)c1 (stereo not shown) [Example 512, 2-[(2-chloro-5-cyano-3-{4-[1-(4-hydroxycyclohexane-carbonyl)azetidin-3-yl]piperazin-1-yl}phenyl)amino]-4-(cyclopropylamino)imidazo[2,1-f][1,2,4]triazine-7-carbonitrile]
5.11 nM | N#Cc1cc(Nc2nc(NC3CC3)c3ncc(C#N)n3n2)c(Cl)c(N2CCN(C3CN(C(=O)C4CCC(O)CC4)C3)CC2)c1 (stereo not shown) [Example 509, 2-[(2-chloro-5-cyano-3-{4-[1-(4-hydroxycyclohexane-carbonyl)azetidin-3-yl]piperazin-1-yl}phenyl)amino]-4-(cyclopropylamino)imidazo[2,1-f][1,2,4]triazine-7-carbonitrile]
0.57 nM | N#Cc1cc(Nc2nc(NC3CC3)c3ncc(C#N)n3n2)c(Cl)c(C2CCNCC2)c1 [Example 208, 2-((2-chloro-5-cyano-3-(piperidin-4-yl)phenyl)amino)-4-(cyclopropylamino)imidazo[2,1-f][1,2,4]triazine-7-carbonitrile]
0.73 nM | CC(O)C(=O)N1CC(N2CCN(c3cc(C#N)cc(Nc4nc(NC5CC5)c5ncc(C#N)n5n4)c3Cl)CC2)C1 (stereo not shown) [Example 487, 2-[(2-chloro-5-cyano-3-{4-[1-(2-hydroxypropanoyl)azetidin-3-yl]piperazin-1-yl}phenyl)amino]-4-(cyclopropylamino)imidazo[2,1-f][1,2,4]triazine-7-carbonitrile]
2.8 nM | CC(C)(C(N)=O)N1CC2(CCN(c3cc(C#N)cc(Nc4nc(NC5CC5)c5ncc(C#N)n5n4)c3Cl)CC2)C1 [Example 803, 2-(7-(2-chloro-5-cyano-3-((7-cyano-4-(cyclopropylamino)imidazo[2,1-f][1,2,4]triazin-2-yl)amino)phenyl)-2,7-diazaspiro[3.5]nonan-2-yl)-2-methylpropanamide]
0.46 nM | CCNc1nc(Nc2cc(C#N)cc(N3C[C@H](NC(=O)OC)[C@@H](OC)C3)c2Cl)nn2c(C#N)cnc12 [Example 333, methyl ((3S,4S)-1-(2-chloro-5-cyano-3-((7-cyano-4-(ethylamino)imidazo [2,1-f][1,2,4]triazin-2-yl)amino)phenyl)-4-methoxy-3-pyrrolidinyl)carbamate]
0.76 nM | N#Cc1cc(Nc2nc(NC3CC3)c3ncc(C#N)n3n2)c(Cl)cc1NC1CCN(C2COC2)CC1 [Example 411, 2-((2-chloro-5-cyano-4-((1-(oxetan-3-yl)piperidin-4-yl)amino)phenyl)amino)-4-(cyclopropylamino)imidazo[2,1-f][1,2,4]triazine-7-carbonitrile]
0.75 nM | CC(=O)NCC(=O)N1CCN(c2cc(C#N)cc(Nc3nc(NC4CC4)c4ncc(C#N)n4n3)c2Cl)CC1 [Example 76, N-(2-(4-(2-chloro-5-cyano-3-((7-cyano-4-(cyclopropylamino)imidazo[2,1-f][1,2,4]triazin-2-yl)amino)phenyl)-1-piperazinyl)-2-oxoethyl)acetamide]
1.03 nM | N#Cc1cc(Nc2nc(NC3CC3)c3ncc(C#N)n3n2)c(Cl)c(N2CCC3(CC2)CNC3)c1 [Example 792, 2-((2-chloro-5-cyano-3-(2,7-diazaspiro[3.5]nonan-7-yl)phenyl)amino)-4-(cyclopropylamino)imidazo[2,1-f][1,2,4]triazine-7-carbonitrile]
3 nM | CCNc1nc(Nc2cc(C#N)cc(N3CC[C@@H](NC(=O)OC)[C@H](OC(=O)CCCOP(=O)(O)O)C3)c2Cl)nn2c(C#N)cnc12 [Example 343, (3R,4R)-1-(2-chloro-5-cyano-3-((7-cyano-4-(ethylamino)imidazo[2,1-f][1,2,4]triazin-2-yl)amino)phenyl)-4-((methoxycarbonyl)amino)piperidin-3-yl 4-(phosphonooxy)butanoate]
0.87 nM | N#Cc1cc(CN2CCC(C(N)=O)CC2)c(Cl)c(Nc2nc(NC3CC3)c3ncc(C#N)n3n2)c1 [Example 471, 1-[(2-chloro-5-cyano-3-{[7-cyano-4-(cyclopropylamino)imidazo[2,1-f][1,2,4]triazin-2-yl]amino}phenyl)methyl]piperidine-4-carboxamide]
0.47 nM | CC(O)C(=O)N1CCN(c2cc(C#N)cc(Nc3nc(NC4CC4)c4ncc(C#N)n4n3)c2Cl)CC1 (racemic) [Example 80, (+/−) 2-((2-chloro-5-cyano-3-(4-lactoyl-1-piperazinyl)phenyl)amino)-4-(cyclopropylamino) imidazo[2,1-f][1,2,4] triazine-7-carbonitrile]
1.45 nM | N#Cc1cc2c(c(Nc3nc(NC4CC4)c4ncc(C#N)n4n3)c1)NCCOCC(=O)N2 [Example 632, 11-((7-cyano-4-(cyclopropylamino)imidazo[2,1-f][1,2,4]triazin-2-yl)amino)-6-oxo-1,2,3,5,6,7-hexahydrobenzo[e][1,4,7]oxadiazonine-9-carbonitrile]
0.91 nM | CCNc1nc(Nc2cc(C#N)cc(N3CCN(C4CN(C(C)=O)C4)CC3)c2Cl)nn2c(C#N)cnc12 [Example 605, 2-({3-[4-(1-acetylazetidin-3-yl)piperazin-1-yl]-2-chloro-5-cyanophenyl}amino)-4-(ethylamino)imidazo[2,1-f][1,2,4]triazine-7-carbonitrile]
1.21 nM | COC(=O)N[C@H]1C[C@@H](O)CN(c2cc(C#N)cc(Nc3nc(NC4CC4)c4ncc(C#N)n4n3)c2Cl)C1 [Example 295, methyl ((3S,5R)-1-(2-chloro-5-cyano-3-((7-cyano-4-(cyclopropylamino)imidazo[2,1-f][1,2,4]triazin-2-yl)amino)phenyl)-5-hydroxy-3-piperidinyl)carbamate]

From patent US9273057B2 (Bristol-Myers Squibb Company, priority 2012, dated 2016)
